Results as given in article PMC10485003, “Antibiotic hyper-resistance in a class I aminoacyl-tRNA synthetase with altered active site signature motif” (Nature Communications, 2023).
Where “and” joins values, the source holds several entries; their conditions need not be identical. Equal values may be shown once.

Columns and labels:
[1] = target: T1, mut-GVHH TtIleRS2 (Thermus thermophilus, UniProt P56690, G56H/H54G); assay: biochemical
T1 construct: hexa-histidine tag (pET28b(+)) (N); made in house; host or cells: E. coli Rosetta2 (DE3)
T1 sequence (P56690 1-1043 H54G/G56H): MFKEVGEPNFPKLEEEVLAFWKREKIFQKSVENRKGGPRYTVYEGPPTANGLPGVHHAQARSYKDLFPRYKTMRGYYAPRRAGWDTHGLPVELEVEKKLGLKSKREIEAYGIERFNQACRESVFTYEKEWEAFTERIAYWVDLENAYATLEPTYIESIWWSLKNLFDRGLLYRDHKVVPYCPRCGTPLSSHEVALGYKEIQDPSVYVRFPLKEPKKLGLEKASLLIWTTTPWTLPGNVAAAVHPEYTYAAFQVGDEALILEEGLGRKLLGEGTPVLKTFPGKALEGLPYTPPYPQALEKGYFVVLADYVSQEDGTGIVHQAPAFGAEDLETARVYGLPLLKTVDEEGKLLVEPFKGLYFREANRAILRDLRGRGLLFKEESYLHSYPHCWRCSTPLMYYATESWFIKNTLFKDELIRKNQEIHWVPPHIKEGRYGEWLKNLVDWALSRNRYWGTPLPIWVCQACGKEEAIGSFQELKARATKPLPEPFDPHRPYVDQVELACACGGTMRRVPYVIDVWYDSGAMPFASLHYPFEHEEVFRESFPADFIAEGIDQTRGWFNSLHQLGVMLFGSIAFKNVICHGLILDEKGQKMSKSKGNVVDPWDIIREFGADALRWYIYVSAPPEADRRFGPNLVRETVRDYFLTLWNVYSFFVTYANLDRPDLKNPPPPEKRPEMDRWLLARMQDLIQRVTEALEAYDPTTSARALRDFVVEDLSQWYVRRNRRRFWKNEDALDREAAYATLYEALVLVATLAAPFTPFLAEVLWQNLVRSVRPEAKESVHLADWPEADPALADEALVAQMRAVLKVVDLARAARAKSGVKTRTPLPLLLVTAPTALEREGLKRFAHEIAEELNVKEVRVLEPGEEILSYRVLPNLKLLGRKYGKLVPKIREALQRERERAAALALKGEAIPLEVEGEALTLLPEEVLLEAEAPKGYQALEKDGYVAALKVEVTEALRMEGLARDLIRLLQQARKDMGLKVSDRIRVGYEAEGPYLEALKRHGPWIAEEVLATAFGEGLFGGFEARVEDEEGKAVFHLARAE
Procedure: (§1) L-Ile and ATP concentrations ranged from 1/10 KM to 10 KM values. When measuring the KI towards one of the substrates, the other was held in saturation (concentrations at least 10 KM). The aliquots of the reaction mixture (1–2.5 μl) were quenched in 2 volumes of 500 mM NaOAc pH = 4.5, 0.1% SDS, and formed ^32P-ATP was separated from the remaining ^32P-PPi by thin-layer chromatography on Polygram CEL 300 PEI UV254 TLC plates (Macherey-Nagel, cat: 801063) using 750 mM KH2PO4 pH=3.5, 4 M urea buffer. Visualization and quantification of the signals was performed using a Typhoon Phosphoimager 5 (General Electric) and accompanying ImageQuant™ TL software (SV: 10.2). The kinetic constants were determined using a global fit option of the competitive inhibition model of GraphPad Prism 6 software (SV: 6.01). All experiments were performed in triplicates. The kcat was determined by dividing the maximal velocity, VM, with the used enzyme concentration. […]
(§2) variable substrate (ATP or Ile) was varied in the range of 0.1 KM to 10 KM. The other substrate (Ile or ATP) was kept in excess at 5 to 10 KM. Data were globally fitted to the competitive inhibition model using GraphPad prism 6.01 for Windows software. The values represent the average value ± SD of three independent experiments. Source data are provided as a Source Data file.
(§3) (1 picture or pasted object on this page, not shown here)

[2] = target: T2, mut-HVGH DrIleRS2 (Deinococcus radiodurans, UniProt Q9RUP8, A59H/H61G/L60V); assay: biochemical
T2 construct: hexa-histidine tag (pET28b(+)) (N); made in house; host or cells: E. coli BL21(DE3)
T2 sequence (Q9RUP8 1-1078 A59H/L60V/H61G): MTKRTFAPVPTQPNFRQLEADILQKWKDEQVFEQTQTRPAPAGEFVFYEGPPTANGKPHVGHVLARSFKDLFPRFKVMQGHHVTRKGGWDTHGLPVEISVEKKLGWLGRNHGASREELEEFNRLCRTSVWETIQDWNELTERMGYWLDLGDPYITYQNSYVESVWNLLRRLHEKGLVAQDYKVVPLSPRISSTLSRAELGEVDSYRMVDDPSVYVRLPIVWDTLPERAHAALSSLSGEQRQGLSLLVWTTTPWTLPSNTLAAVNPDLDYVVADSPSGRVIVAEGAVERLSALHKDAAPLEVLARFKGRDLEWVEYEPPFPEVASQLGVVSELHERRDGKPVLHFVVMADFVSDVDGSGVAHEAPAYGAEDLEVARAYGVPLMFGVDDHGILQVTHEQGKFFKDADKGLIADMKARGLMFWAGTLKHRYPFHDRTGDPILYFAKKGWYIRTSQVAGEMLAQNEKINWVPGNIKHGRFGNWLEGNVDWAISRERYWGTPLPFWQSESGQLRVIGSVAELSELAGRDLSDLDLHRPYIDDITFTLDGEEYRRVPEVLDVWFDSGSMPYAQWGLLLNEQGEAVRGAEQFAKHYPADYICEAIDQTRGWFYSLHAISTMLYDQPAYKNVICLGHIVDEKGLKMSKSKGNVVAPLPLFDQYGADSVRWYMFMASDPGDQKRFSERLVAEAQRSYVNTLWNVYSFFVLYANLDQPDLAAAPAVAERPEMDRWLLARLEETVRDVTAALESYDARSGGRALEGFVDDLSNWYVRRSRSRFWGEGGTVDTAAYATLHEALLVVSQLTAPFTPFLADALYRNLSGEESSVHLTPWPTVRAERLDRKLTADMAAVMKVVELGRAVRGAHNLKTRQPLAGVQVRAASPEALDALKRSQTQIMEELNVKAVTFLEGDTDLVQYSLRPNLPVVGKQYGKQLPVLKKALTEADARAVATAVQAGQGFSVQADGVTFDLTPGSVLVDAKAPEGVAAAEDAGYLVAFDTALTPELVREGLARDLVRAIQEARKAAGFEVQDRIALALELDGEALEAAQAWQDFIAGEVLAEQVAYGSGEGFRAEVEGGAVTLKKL
Procedure: as §1, §2, §3

[3] = target: ScIleRS2; settings: aminoacylation, with tRNA; cited from earlier work
[4] = test system: E. coli IleRS1; design: method as in earlier work; settings: aminoacylation, with tRNA; cited from earlier work
[5] = KI (MUP)ATP, amino acid activation assay, ATP as variable substrate, average ± SD of three independent experiments
[6] = KI (MUP)Ile, amino acid activation step, ATP/PPi exchange assay, Ile varied, ATP saturating, average ± SD of three independent experiments
[7] = KI, single replicates, mupirocin inhibition towards Ile, GraphPad Prism output, Repl1-Repl3

In the case of C/C(=C\C(=O)OCCCCCCCCC(=O)O)C[C@@H]1OC[C@H](C[C@@H]2O[C@H]2[C@@H](C)[C@H](C)O)[C@@H](O)[C@H]1O [mupirocin], the Ki [1, 5] is reported as 34 ± 2 µM, the Ki [1, 6] is reported as 35 ± 2 µM and the Ki [1, 7] is reported as 34 µM and 35 µM and 36 µM. For the same compound, the Ki [2, 5] was 9.3 ± 0.4 µM, the Ki [2, 6] was 8.1 ± 0.3 µM and the Ki [2, 7] was 7.8 µM and 8.4 µM (2×). For the same compound, the Ki [3] was 15 µM and the Ki [4] was 0.0025 µM.
